From US9133158B2, “Bicyclic dihydroisoquinoline-1-one derivatives” (Hoffmann-La Roche Inc., priority 2011, dated 2015) come the findings set out here.

One assay concerns the target T1, human CYP11B2 (Homo sapiens, UniProt P19099).
T1 construct: expressed in transfected cells
T1 sequence (P19099 25-503): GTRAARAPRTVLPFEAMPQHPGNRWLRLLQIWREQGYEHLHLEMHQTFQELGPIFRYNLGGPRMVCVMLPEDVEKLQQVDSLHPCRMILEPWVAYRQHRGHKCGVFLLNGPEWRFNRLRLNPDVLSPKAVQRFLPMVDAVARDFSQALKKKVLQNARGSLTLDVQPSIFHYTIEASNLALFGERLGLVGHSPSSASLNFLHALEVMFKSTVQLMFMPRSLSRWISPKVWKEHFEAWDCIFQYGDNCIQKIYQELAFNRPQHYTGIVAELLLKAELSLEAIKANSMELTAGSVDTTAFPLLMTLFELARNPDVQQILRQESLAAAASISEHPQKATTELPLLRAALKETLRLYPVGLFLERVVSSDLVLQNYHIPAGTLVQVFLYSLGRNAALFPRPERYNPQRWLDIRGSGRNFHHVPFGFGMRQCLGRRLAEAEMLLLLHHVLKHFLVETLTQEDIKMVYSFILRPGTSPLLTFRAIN
Briefly: G-402 cellular enzyme assay, human CYP11B2 (aldosterone release, HTRF). Format: cell-based. Conditions: G-402 cells, 1 μM Deoxycorticosterone. Put shortly:
(§1)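 Steroid output from supernatants, quantified by HTRF as cortisol for CYP11B1 or aldosterone for CYP11B2, gave EC50 values by least-squares 4-parameter MMF fitting against inhibitor concentration. Stably transfected G-402 cells carrying the human enzyme received 1 μM deoxycortisol or 1 μM deoxycorticosterone respectively, 16 h, DMEM/F12 with 2.5% charcoal-stripped FCS.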
(In general: In TR-FRET formats the signal depends on donor and acceptor labels being close together.)

A further assay addresses T2, human CYP11B1 (Homo sapiens, UniProt P15538).
T2 construct: expressed in transfected cells
T2 sequence (P15538 25-503): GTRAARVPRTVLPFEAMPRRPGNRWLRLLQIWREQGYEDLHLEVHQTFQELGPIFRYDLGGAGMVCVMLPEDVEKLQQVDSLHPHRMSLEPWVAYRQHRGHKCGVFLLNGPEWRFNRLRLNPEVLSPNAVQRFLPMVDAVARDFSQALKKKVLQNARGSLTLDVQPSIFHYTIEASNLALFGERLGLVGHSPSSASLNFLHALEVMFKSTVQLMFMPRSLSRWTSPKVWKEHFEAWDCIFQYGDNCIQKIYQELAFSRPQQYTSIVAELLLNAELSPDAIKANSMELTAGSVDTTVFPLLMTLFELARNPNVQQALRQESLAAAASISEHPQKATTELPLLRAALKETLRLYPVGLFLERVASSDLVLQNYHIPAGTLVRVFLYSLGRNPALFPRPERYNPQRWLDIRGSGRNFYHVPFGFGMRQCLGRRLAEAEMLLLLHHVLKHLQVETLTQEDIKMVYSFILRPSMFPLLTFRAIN
As to the kind of experiment: G-402 cellular enzyme assay, human CYP11B1 (cortisol release, HTRF). Format: cell-based. Conditions: G-402 cells, 1 μM Deoxycortisol. Put shortly:
as §1

In general, EC50 refers to the midpoint of the concentration-response curve. Read a low EC50 as greater potency. Turning to `CCC(=O)NC1CCCc2c1cncc2N1C(=O)c2ccc(Cl)cc2C1(C)C` (racemic) [Example 468, N-[4-(6-Chloro-1,1-dimethyl-3-oxo-1,3-dihydro-isoindol-2-yl)-5,6,7,8-tetrahydro-isoquinolin-8-yl]-propionamide], the EC50 at human CYP11B2 was determined as 0.0528 µM; at human CYP11B1, 2.66 µM.

Regarding `COc1ccc2c(n1)C(C)(C)N(c1cccnc1)C2=O` [Example 300, 2-Methoxy-7,7-dimethyl-6-pyridin-3-yl-6,7-dihydro-pyrrolo[3,4-b]pyridin-5-one], the figures for the concentration giving a half-maximal response (EC50) on human CYP11B2 and at human CYP11B1 were 0.216 µM and 14.3 µM, respectively.

As for `CCC1c2cc(Cl)ccc2C(=O)N1c1cncc(OC(F)F)c1` (stereo not shown) [Example 282, 5-Chloro-2-(5-difluoromethoxy-pyridin-3-yl)-3-ethyl-2,3-dihydro-isoindol-1-one], the EC50 at human CYP11B2 was 0.0429 µM; on human CYP11B1, 0.475 µM.

Take `CC1(C)c2nc(Cl)ccc2C(=O)N1c1cccnc1` [Example 298, 2-Chloro-7,7-dimethyl-6-pyridin-3-yl-6,7-dihydro-pyrrolo[3,4-b]pyridin-5-one]: the EC50 worked out at 0.175 µM at human CYP11B2 and 13.7 µM at human CYP11B1.

Regarding `Cc1c(-c2cncc(N3CCc4cc(Cl)ccc4C3=O)c2)cnn1C` [Example 423, 6-Chloro-2-[5-(1,5-dimethyl-1H-pyrazol-4-yl)-pyridin-3-yl]-3,4-dihydro-2H-isoquinolin-1-one], the EC50 turned out to be 0.0637 µM at human CYP11B2 and 1.02 µM on human CYP11B1.

Consider `O=C1c2ccc(Cl)cc2CCN1c1cnccc1CO` [Example 56, 6-Chloro-2-(4-hydroxymethyl-pyridin-3-yl)-3,4-dihydro-2H-isoquinolin-1-one; compound with trifluoro-acctic acid], for which the EC50 on human CYP11B2 worked out at 0.297 µM; on human CYP11B1 it was 13.8 µM.

As to `CC1(C)c2cc(Cl)ccc2C(=O)N1c1cncc(CNC(=O)c2ncccc2Cl)c1` [Example 431, 3-Chloro-pyridine-2-carboxylic acid [5-(6-chloro-1,1-dimethyl-3-oxo-1,3-dihydro-isoindol-2-yl)-pyridin-3-ylmethyl]-amide], the EC50 on human CYP11B2 turned out to be 0.0444 µM; on human CYP11B1, 0.912 µM.

With `CC1(C)c2ccc(Cl)cc2C(=O)N1c1cncc(CNS(C)(=O)=O)c1` [Example 408, N-[5-(5-Chloro-1,1-dimethyl-3-oxo-1,3-dihydro-isoindol-2-yl)-pyridin-3-ylmethyl]-methane-sulfonamide], the EC50 on human CYP11B2 was 0.923 µM; at human CYP11B1, 14.3 µM.

`O=C1c2ccc(Cl)cc2CCN1c1cncc(Cc2c(Cl)cccc2Cl)c1` [Example 214, 6-Chloro-2-[5-(2,6-dichloro-benzyl)-pyridin-3-yl]-3,4-dihydro-2H-isoquinolin-1-one]: the concentration for a half-maximal effect (EC50) at human CYP11B2 amounted to 0.0636 µM; at human CYP11B1 it was 0.3 µM.

As for `COc1cncc(N2CCc3nc(OC)ccc3C2=O)c1` [Example 97, 2-Methoxy-6-(5-methoxy-pyridin-3-yl)-7,8-dihydro-6H-[1,6]naphthyridin-5-one], the EC50 on human CYP11B2 amounted to 0.0169 µM; at human CYP11B1 it was 0.22 µM.

`O=C1c2ccc(Cl)cc2C2(CC2)N1c1cncc(F)c1` [Example 290, 6′-Chloro-2′-(5-fluoropyridin-3-yl)spiro[cyclo-propane-1,1′-isoindol]-3′(2′H)-one]: the results for the EC50 at human CYP11B2 and on human CYP11B1 were 0.101 µM and 3.91 µM, respectively.

With `CS(=O)(=O)NCc1cncc(N2C(=O)c3cc(F)ccc3C23CC3)c1` [Example 401, N-{[5-(5′-Fluoro-3′-oxospiro [cyclopropane-1,1′-isoindol]-2′(3′H)-yl)pyridin-3-yl]methyl} methane-sulfonamide], the EC50 on human CYP11B2 is 0.36 µM; on human CYP11B1 it was 9.11 µM.

For `CSc1cncc(N2CCc3cc(Cl)ccc3C2=O)c1` [Example 59, 6-Chloro-2-(5-methylsulfanyl-pyridin-3-yl)-3,4-dihydro-2H-isoquinolin-1-one], the concentration giving a half-maximal response (EC50) at human CYP11B2 came out at 0.0081 µM; on human CYP11B1, 0.135 µM.

Turning to `COC(C)c1c(F)cncc1N1CCc2cc(Cl)ccc2C1=O` (stereo not shown) [Example 76, 6-Chloro-2-[5-fluoro-4-(1-methoxy-ethyl)-pyridin-3-yl]-3,4-dihydro-2H-isoquinolin-1-one], the EC50 at human CYP11B2 came to 0.492 µM; at human CYP11B1 it was 13.8 µM.

`CCS(=O)(=O)NCc1cncc(N2C(=O)c3ccc(Cl)cc3C2(C)C)c1` [Example 387, Ethanesulfonic acid [5-(6-chloro-1,1-dimethyl-3-oxo-1,3-dihydro-isoindol-2-yl)-pyridin-3-ylmethyl]-amide]: the EC50 was determined as 0.0922 µM at human CYP11B2 and 2.84 µM at human CYP11B1.

Regarding `O=C1c2ccc(Cl)cc2C2(CC2)N1c1cncc(OC(F)F)c1` [Example 291, 6′-Chloro-2′-[5-(difluoromethoxy)pyridin-3-yl]spiro[cyclo-propane-1,1′-isoindol]-3′(2′H)-one], the figures for the concentration giving a half-maximal response (EC50) on human CYP11B2 and on human CYP11B1 were 0.0032 µM and 0.122 µM, respectively.

`O=C1c2ccc(Cl)cc2CCN1c1cncc(Cl)c1` [Example 4, 6-Chloro-2-(5-chloro-pyridin-3-yl)-3,4-dihydro-2H-isoquinolin-1-one]: the values for the EC50 at human CYP11B2 and at human CYP11B1 were 0.0671 µM and 1.24 µM, respectively.

In the case of `O=C1c2ccc(Cl)cc2CCN1c1cncc(OC(F)F)c1` [Example 60, 6-Chloro-2-(5-difluoromethoxy-pyridin-3-yl)-3,4-dihydro-2H-isoquinolin-1-one], the EC50 at human CYP11B2 came to 0.0707 µM; at human CYP11B1, 0.794 µM.

For the compound `O=C1c2ccc(Cl)cc2CCN1c1cncc(Cn2ccnc2C2CC2)c1` [Example 188, 6-Chloro-2-[5-(2-cyclopropyl-imidazol-1-ylmethyl)-pyridin-3-yl]-3,4-dihydro-2H-isoquinolin-1-one], the EC50 on human CYP11B2 stood at 0.228 µM; on human CYP11B1, 4.15 µM.

For the compound `COC(C)c1ccncc1N1CCc2cc(Cl)ccc2C1=O` (stereo not shown) [Example 64, 6-Chloro-2-[4-(1-methoxy-ethyl)-pyridin-3-yl]-3,4-dihydro-2H-isoquinolin-1-one], the concentration giving a half-maximal response (EC50) worked out at 0.127 µM at human CYP11B2 and 6.31 µM on human CYP11B1.

On to `COc1cncc(N2CC(C)c3cc(Cl)ccc3C2=O)c1` (stereo not shown) [Example 107, 6-Chloro-2-(5-methoxy-pyridin-3-yl)-4-methyl-3,4-dihydro-2H-isoquinolin-1-one], for which the concentration for a half-maximal effect (EC50) stood at 0.0635 µM on human CYP11B2 and 0.77 µM at human CYP11B1.

As for `COC(c1ccncc1N1CCc2cc(Cl)ccc2C1=O)C1CC1` (stereo not shown) [Example 78, 6-Chloro-2-[4-(cyclopropyl-methoxy-methyl)-pyridin-3-yl]-3,4-dihydro-2H-isoquinolin-1-one], the EC50 at human CYP11B2 came to 0.761 µM; at human CYP11B1, 1.45 µM.

Take `O=C1c2ccc(Cl)cc2CCN1c1cncc(CCO)c1` [Example 23, 6-Chloro-2-[5-(2-hydroxy-ethyl)-pyridin-3-yl]-3,4-dihydro-2H-isoquinolin-1-one]: the EC50 on human CYP11B2 amounted to 0.064 µM; at human CYP11B1, 0.571 µM.

`O=C(Nc1cncc(N2CCc3cc(Cl)ccc3C2=O)c1)NC1CCCCC1` [Example 250, 1-[5-(6-Chloro-1-oxo-3,4-dihydro-1H-isoquinolin-2-yl)-pyridin-3-yl]-3-cyclohexyl-urea]: the values for the concentration for a half-maximal effect (EC50) on human CYP11B2 and at human CYP11B1 were 4.44 µM and 12.3 µM, respectively.

With `CC(O)c1cncc(N2CCc3cc(Cl)ccc3C2=O)c1` (stereo not shown) [Example 13, 6-Chloro-2-[5-(1-hydroxy-ethyl)-pyridin-3-yl]-3,4-dihydro-2H-isoquinolin-1-one], the values for the EC50 on human CYP11B2 and on human CYP11B1 were 0.0543 µM and 0.865 µM, respectively.

Turning to `CCC1c2cc(Cl)ccc2C(=O)N1c1cncc(F)c1` (single isomer, unassigned) [Example 310, (S or R)-5-Chloro-3-ethyl-2-(5-fluoro-pyridin-3-yl)-2,3-dihydro-isoindol-1-one], the EC50 at human CYP11B2 amounted to 0.0165 µM; at human CYP11B1, 3.97 µM.

For the compound `O=C1c2ccc(Cl)cc2CCN1c1cncc(Cc2cc(F)cc(F)c2)c1` [Example 211, 6-Chloro-2-[5-(3,5-difluoro-benzyl)-pyridin-3-yl]-3,4-dihydro-2H-isoquinolin-1-one], the results for the EC50 at human CYP11B2 and on human CYP11B1 were 0.0044 µM and 0.0532 µM, respectively.

On to `CCS(=O)(=O)NCc1cncc(N2Cc3cc(Cl)ccc3C2=O)c1` [Example 115, Ethanesulfonic acid [5-(5-chloro-1-oxo-1,3-dihydro-isoindol-2-yl)-pyridin-3-ylmethyl]-amide], for which the EC50 at human CYP11B2 was determined as 0.682 µM; on human CYP11B1, 13.5 µM.

In the case of `O=C1c2ccc(Cl)cc2CCN1c1cnccc1C(F)(F)F` [Example 22, 6-Chloro-2-(4-trifluoromethyl-pyridin-3-yl)-3,4-dihydro-2H-isoquinolin-1-one], the EC50 at human CYP11B2 was determined as 0.0557 µM; on human CYP11B1, 0.517 µM.
